Patent US4871716A, “Magnetically responsive, hydrophilic microspheres for incorporation of therapeutic substances and methods of preparation thereof” (priority 1986, dated 1989)

Tests used:
CD-1 mice = assay: Toxicity in CD-1 mice by i.p. injection; format: in vivo, CD-1 white female mice
Method: (§1) CD-1 white female mice, 5-7 weeks of age, weighing 30-33 g were injected by the intraperitoneal (i.p.) route with AD at concentrations of 0.6 mg and 1.5 mg dissolved in 0.5 ml of sterile saline. A second group of animals were injected with AD-PGA(15%)-HSA/MS-Q with 0.6, 1.5, and 2.5 mg of bound AD. For each concentration of the free and bound drug, 5 mice were used. PGA(15%)-HSA/MS-Q without AD was used for a control group and injected in equivalent weight amounts. Animals were then observed over a two-month period and fatalities were recorded for each group and tabulated.

[1] = Toxicity in CD-1 mice by i.p. injection; format: in vivo, CD-1 white female mice; details: mouse, in vivo, ip, 0.6 mg; 600 μg free AD; read-out: animals killed
Method: as §1

## COc1cccc2c1C(=O)c1c(O)c3c(c(O)c1C2=O)C[C@@](O)(C(=O)CO)C[C@@H]3O[C@H]1C[C@H](N)[C@H](O)[C@H](C)O1 [AD, Adriamycin]
CD-1 mice; AD 0.6 mg i.p. (free or bound), 7 days
  Survival from Time of Administration: 5/5
CD-1 mice; AD 0.6 mg i.p. (free or bound), 14 days
  Survival from Time of Administration: 1/5
CD-1 mice; AD 0.6 mg i.p. (free or bound), 21 days
  Survival from Time of Administration: 1/5
CD-1 mice; AD 0.6 mg i.p. (free or bound), 28 days
  Survival from Time of Administration: 1/5
CD-1 mice; AD 0.6 mg i.p. (free or bound), 35 days
  Survival from Time of Administration: 1/5
CD-1 mice; AD 1.5 mg i.p. (free or bound), 7 days
  Survival from Time of Administration: 5/5
CD-1 mice; AD 1.5 mg i.p. (free or bound), 14 days
  Survival from Time of Administration: 0/5
CD-1 mice; i.p.
  ulcer development at site of injection: All animals treated with free AD developed these ulcers
[1]
  mortality at 1460 h: > 80%
